This note sets out measurements from ChEMBL document CHEMBL1201862, “PubChem BioAssay data set” (2004).

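Assay format: 96-well plates, 48-hour exposure. GI50 = concentration required for 50% inhibition of growth.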 Active and inactive are the calls of the source. No stated cut-off is given here; in the data, active = GI50 up to about 1.1 µM and inactive = higher. A value given as a limit tells only on which side of the number the result lay.

Experiment in all cases: inhibition of tumour cell growth, NCI panel, 48 h
For test [1], the system named is SNB-19.
Test [2] concerns SR.
In test [3] the test system is MDA-MB-231.
Test [4] concerns OVCAR-3.
The subject of test [5] is UO-31.
In test [6] the test system is HCT-116.
Test [7] has as its system UACC-257.
The test system of test [8] is CCRF-CEM.
For test [9], the system named is A549.
Test [10] deals with SW-620.
In test [11] the test system is MCF7.
The test system of test [12] is M14.
In test [13] the test system is MDA-N.
In test [14] the test system is TK-10.
Test [15] deals with PC-3.
Test [16] relates to HL-60.
For test [17], the system named is OVCAR-8.
Test [18] relates to IGROV-1.
In test [19] the test system is MOLT-4.
For test [20], the system named is SF-539.

As to `Nc1nc(SCc2ccccc2Cl)cc(C(=O)O)n1`, the GI50 in test [1] was > 100 µM (inactive); in test [2], 39 µM (inactive); in test [3] it was > 100 µM (inactive); in [4], 28.6 µM (inactive); in test [5] it was 67 µM (inactive); in test [6] it was 54.5 µM (inactive). In addition, the GI50 was > 100 µM (inactive) in test [7]; 32.2 µM (inactive) in test [8]; > 100 µM (inactive) in [9]; 70.6 µM (inactive) in test [10]; > 100 µM (inactive) in test [11]; > 100 µM (inactive) in test [12]. Moreover, the GI50 is 96.4 µM (inactive) in test [13]; > 100 µM (inactive) in test [14]; 53.6 µM (inactive) in test [15]; 64.1 µM (inactive) in [16]; 46.9 µM (inactive) in test [17]; > 100 µM (inactive) in [18].

For the molecule `COc1cc2c(cc1OCCN1C(=O)c3cccc4cccc(c34)C1=O)N=C[C@@H]1CCCN1C2=O`, the GI50 was 12.4 µM (inactive) in test [1]; 1.01 µM (active) in test [19]; > 100 µM (inactive) in test [2]; 7.41 µM (inactive) in test [3]; 6.68 µM (inactive) in test [4]; 8.87 µM (inactive) in test [5]. For the same molecule, the GI50 was 9.12 µM (inactive) in test [20]; 7.66 µM (inactive) in [6]; 9.44 µM (inactive) in test [7]; 0.236 µM (active) in test [8]; 8.65 µM (inactive) in test [9]; 7.66 µM (inactive) in [10]. In addition, the GI50 is 6.59 µM (inactive) in [11]; 8.34 µM (inactive) in test [12]; 8.02 µM (inactive) in test [13]; 8.05 µM (inactive) in test [14]; 7.08 µM (inactive) in [15]; 8.57 µM (inactive) in [17]. Further, the GI50 in [18] is 3.11 µM (inactive).

With `CC(=O)Nc1ccc(/N=C2\C(c3ccccc3)=C(SC3=C(c4ccccc4)/C(=N\c4ccc(NC(C)=O)cc4)c4ccccc43)c3ccccc32)cc1`, the GI50 in test [1] was 56 µM (inactive); in test [19], 21.6 µM (inactive); in test [2] it was 23.8 µM (inactive); in test [3], 50.8 µM (inactive); in test [4], 27.4 µM (inactive); in test [5], 24.7 µM (inactive). Moreover, the GI50 in test [20] was < 0.01 µM (active); in test [6], 34.4 µM (inactive); in test [7], 46 µM (inactive); in test [8], 24.7 µM (inactive); in [9], 37.2 µM (inactive); in [10], 40.2 µM (inactive). Further, the GI50 in test [11] is 27.4 µM (inactive); in [12], 27 µM (inactive); in [13], 32.8 µM (inactive); in [14], 69.7 µM (inactive); in [15], 31.1 µM (inactive); in test [17], 29.6 µM (inactive). Besides, in test [18], the GI50 is 32.1 µM (inactive).

As to `NC(CCCCNC(=O)OCc1ccccc1)C(=O)NC(CCCCNC(=O)OCc1ccccc1)C(=O)ON1C(=O)CCC1=O` (centres undefined), the GI50 in test [1], in test [19], in test [2], in [3], in [5] and in test [6] was > 100 µM (inactive) each time. Besides, the GI50 in [7], in test [8], in test [9], in test [10], in [11] and in test [12] was > 100 µM (inactive) in each case. In addition, the GI50 in test [13], in test [14], in test [15], in test [16], in [17] and in [18] was > 100 µM (inactive) each time.
